According to ChEMBL document CHEMBL5346961, “Discovery and Evaluation of 3-Quinoxalin Urea Derivatives as Potent, Selective, and Orally Available ATM Inhibitors Combined with Chemotherapy for the Treatment of Cancer via Goal-Oriented Molecule Generation and Virtual Screening” (J Med Chem, 2023):
The source made the active and inactive calls. The calls are words filed in the database; no cut-off is given here.

Experiments:
[1] = molecular target: Serine-protein kinase ATM (Homo sapiens, UniProt Q13315); experiment: Inhibition of ATM (unknown origin) at 1 uM in presence of [gamma33P-ATP] by scintillation counting method relative to control
[2] = tested on: HCT-116; experiment: Induction of DNA damage in human HCT-116 cells assessed as reduction in p21 phosphorylation at T145 residue at 0.5 to 2 uM measured after 4 hrs by Western blot analysis; format: functional, cell-based; details: dose 0.5-2 µM
[3] = tested on: HCT-116; experiment: Induction of apoptosis in human HCT-116 cells assessed as early apoptotic cells at 4 uM measured after 2 days in presence of irinotecan by AnnexinV-FITC/PI staining based analysis (reference value: 14.4%); format: functional; details: time 2 day
[4] = Oral bioavailability in Balb/C mouse at 10 mg/kg measured upto 48 hrs by LC-MS/MS analysis; format: ADME, organism-based; details: in vivo

Serine-protein kinase ATM, sequence (Q13315 whole entry): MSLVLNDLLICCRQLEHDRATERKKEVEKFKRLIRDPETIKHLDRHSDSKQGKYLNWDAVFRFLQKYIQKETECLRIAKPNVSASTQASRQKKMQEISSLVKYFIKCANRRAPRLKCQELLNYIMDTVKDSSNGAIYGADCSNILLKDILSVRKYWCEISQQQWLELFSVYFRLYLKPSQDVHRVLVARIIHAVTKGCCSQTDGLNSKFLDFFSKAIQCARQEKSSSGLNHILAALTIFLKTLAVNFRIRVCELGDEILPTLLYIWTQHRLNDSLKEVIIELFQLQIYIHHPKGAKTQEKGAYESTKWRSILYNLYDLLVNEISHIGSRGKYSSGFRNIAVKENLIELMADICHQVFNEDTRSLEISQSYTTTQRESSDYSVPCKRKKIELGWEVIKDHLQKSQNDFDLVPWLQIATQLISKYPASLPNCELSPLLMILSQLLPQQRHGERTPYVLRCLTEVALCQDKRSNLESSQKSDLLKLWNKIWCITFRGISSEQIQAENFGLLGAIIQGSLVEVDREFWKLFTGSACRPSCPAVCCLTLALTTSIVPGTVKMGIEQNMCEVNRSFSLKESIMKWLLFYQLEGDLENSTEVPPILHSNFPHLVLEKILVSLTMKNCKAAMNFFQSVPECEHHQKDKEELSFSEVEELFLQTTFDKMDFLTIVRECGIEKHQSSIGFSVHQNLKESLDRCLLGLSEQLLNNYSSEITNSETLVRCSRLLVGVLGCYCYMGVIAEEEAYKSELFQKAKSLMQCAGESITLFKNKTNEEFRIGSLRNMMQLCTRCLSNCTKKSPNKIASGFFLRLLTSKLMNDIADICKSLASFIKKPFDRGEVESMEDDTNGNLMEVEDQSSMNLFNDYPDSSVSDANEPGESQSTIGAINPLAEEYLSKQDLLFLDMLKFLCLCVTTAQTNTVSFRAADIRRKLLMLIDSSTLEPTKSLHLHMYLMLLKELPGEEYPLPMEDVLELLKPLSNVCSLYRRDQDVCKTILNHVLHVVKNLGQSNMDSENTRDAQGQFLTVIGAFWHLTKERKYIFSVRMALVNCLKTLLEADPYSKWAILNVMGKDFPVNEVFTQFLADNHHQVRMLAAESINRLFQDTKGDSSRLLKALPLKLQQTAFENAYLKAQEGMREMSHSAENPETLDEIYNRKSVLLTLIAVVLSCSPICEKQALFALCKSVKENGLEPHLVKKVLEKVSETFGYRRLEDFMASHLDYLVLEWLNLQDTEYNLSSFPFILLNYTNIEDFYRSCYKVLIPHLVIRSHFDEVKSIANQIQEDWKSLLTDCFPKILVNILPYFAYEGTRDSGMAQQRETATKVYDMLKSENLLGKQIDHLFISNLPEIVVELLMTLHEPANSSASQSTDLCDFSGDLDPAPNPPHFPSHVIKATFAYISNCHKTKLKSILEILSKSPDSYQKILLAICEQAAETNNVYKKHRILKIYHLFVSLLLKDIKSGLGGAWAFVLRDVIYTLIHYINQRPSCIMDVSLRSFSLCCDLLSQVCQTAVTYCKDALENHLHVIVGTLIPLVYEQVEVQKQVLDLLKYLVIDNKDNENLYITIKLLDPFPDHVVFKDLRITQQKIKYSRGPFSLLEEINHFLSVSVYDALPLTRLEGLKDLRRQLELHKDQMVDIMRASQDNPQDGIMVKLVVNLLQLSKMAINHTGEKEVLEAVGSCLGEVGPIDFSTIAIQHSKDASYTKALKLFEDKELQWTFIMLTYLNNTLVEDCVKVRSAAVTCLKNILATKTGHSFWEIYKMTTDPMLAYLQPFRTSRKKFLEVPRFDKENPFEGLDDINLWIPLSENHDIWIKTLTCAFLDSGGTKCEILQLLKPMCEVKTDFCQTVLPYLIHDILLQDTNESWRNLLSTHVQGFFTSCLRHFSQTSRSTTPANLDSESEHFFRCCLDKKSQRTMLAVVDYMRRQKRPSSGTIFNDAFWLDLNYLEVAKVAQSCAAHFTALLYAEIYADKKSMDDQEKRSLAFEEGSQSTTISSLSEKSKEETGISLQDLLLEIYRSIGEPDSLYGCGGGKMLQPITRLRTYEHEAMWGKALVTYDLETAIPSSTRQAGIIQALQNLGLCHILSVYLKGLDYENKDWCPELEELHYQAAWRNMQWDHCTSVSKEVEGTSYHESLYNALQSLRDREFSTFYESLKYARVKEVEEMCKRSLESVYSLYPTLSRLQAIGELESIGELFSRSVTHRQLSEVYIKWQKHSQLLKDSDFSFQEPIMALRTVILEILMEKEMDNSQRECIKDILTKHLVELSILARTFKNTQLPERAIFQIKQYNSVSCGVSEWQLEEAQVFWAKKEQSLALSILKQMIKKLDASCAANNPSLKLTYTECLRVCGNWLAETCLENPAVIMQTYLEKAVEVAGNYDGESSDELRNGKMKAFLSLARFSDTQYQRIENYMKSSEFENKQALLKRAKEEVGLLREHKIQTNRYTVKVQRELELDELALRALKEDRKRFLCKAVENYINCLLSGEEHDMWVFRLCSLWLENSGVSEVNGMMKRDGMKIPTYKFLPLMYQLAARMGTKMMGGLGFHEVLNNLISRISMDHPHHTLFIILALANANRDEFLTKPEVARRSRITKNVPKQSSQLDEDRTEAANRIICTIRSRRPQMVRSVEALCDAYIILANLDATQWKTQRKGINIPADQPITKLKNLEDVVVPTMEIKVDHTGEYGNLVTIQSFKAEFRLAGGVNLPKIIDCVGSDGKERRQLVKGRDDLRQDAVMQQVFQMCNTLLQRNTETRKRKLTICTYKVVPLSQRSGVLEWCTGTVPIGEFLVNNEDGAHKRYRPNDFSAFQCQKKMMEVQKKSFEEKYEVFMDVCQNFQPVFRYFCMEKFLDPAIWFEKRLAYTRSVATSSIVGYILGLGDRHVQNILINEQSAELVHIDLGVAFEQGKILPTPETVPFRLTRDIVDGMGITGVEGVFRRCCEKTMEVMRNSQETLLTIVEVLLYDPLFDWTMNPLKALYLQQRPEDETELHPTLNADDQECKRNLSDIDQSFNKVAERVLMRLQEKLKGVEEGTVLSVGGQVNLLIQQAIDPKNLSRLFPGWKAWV

## CC(C)NC(=O)N(C)c1cnc2ccc(-c3ccc(OCCCN4CCCCC4)nc3)cc2n1
[1]
  inhibition: < 50%
[2]
  Activity: Active
[3]
  Activity: 55.7%
[4]
  bioavailability: 107%
